Results published in EP1345618B1, “CHLORZOXAZONE FOR THE TREATMENT OF PSORIASIS” (Switch Biotech Aktiengesellschaft, priority 2000, dated 2002).
Entries after “also recorded” stand apart in the source; their conditions may differ. Where two headings read alike, the source gives them in different places.

Tests used:
Format in all cases: cell-based
[1] = system: HaCaT-Keratinozyten; test: Patch-clamp recording of the membrane potential (Vm) of HaCaT keratinocytes; conditions: for Depolarisierung auf ein Plateau während der Behandlung mit ATP: other K+ channel blockers, compared with ChTx and Clotrimazol
Protocol: Um einen Ionenkanal zu identifizieren, der wesentlich bei der Signaltransduktion wundheilungsspezifischer Signale beteiligt ist, wurden HaCaT-Zellen elektrophysiologisch untersucht. Die Anzucht der HaCaT-Keratinozyten erfolgte in DEM mit 10% FRS (Gibco BRL), den Antibiotika (Penicillin/Streptomycin 100 U/ml) zugesetzt worden war. Die Ca^2+-Endkonzentration betrug 1,8 mM. Die Zellen wurden inkubiert bis eine konfluente Zellkultur entstanden war; anschließend wurde das Kulturmedium durch "Standard Bath Solution" (SBS; 130 mM NaCl, 3 mM KCl; 2 mM CaCl2; 2 mM MgCl2; 25 mM HEPES/NaHEPES; 10 mM D-Glukose; pH 7,4) ersetzt und die Schalen an einem inversen Mikroskop (Axiovert, Zeiss) untersucht. Die "Patch"-Pipetten wurden aus Borosilikatröhrchen an einer horizontalen Ausziehvorrichtung (DMZ, Zeitz) nach dem zweistufigen Ausziehverfahren hergestellt. Die Pipetten wurden anschließend mit einer Lösung, die 135 mM Kaliumglukonat, 10 mM KCl, 1,6 mM Na2HPO4, 0,73 mM CaCl2, 1,03 mM MgCl2, 1 mM EGTA, 14 mM HEPES/NaHEPES und […] Nystatin; pH 7,2 enthielt, gefüllt (Ca^2+-Aktivität in der Lösung= 10^-7 M). Der Widerstand dieser "Patch"-Pipetten betrug […] im Bad. Nachdem eine Versiegelung im GΩ-Bereich hergestellt wurde (typischerweise 1,5-2 GΩ) wurde der Verstärker auf Strom-Klemm Modus umgestellt. […] Die elektrophysiologischen Signale wurden mittels eines Axopatch 200 Verstärkers in Verbindung mit einem TL-1 Labmaster Interface und AXOTAPE Software (Axon Instruments) aufgenommen, verstärkt und digitalisiert. Die statistische Auswertung (ein-Weg ANOVA mit Bonferri post-test Vergleich) wurde mit Graphpad prism 2.0 durchgeführt.
Bei Experimenten, bei denen die intrazelluläre Ca^2+-Konzentration durch Blitzphotolyse von "caged IP3" (Calbiochem) erhöht wurde, wurde das "Patch-Clamp Recording" in der Ganzzell-Konfiguration durchgeführt, wobei eine Pipettenlösung enthaltend 120 mM Kaliumglukonat, 20 mM KCl, 1 mM MgCl2, 10 mM HEPES/NaHEPES, 2 mM Na2ATP, 0,3 mM NaGTP (pH 7,2) und 10-100 µM "caged IP3" verwendet wurde. Nach 5-7 min Ganzzell-Aufzeichnung wurde IP3 durch einen UV-Lichtblitz freigesetzt, der durch eine Xenon-Bogen-Lampe (75 W; Anregungsfilter: 330 ± 40 nm), die mit dem Epifluoreszenzport des Mikroskops verbunden war, generiert wurde. Der UV-Lichtstrahl wurde durch das 40-fach Phasenkontrastobjektiv auf die Keratinozyten fokussiert. Die Dauer des Blitzes (1 s) wurde durch einen Uniblitz "Shutter" (Vincent Assoc.) eingestellt.
Bei Experimenten, bei denen die gesamte Lösung, in der die Zellen inkubiert wurden ausgewechselt wurde, wurde ein konischer Plexiglaseinsatz mit mehrfachen Einflußleitungen und einer Ausflußleitung in die Kulturschale eingesetzt, um das Volumen der Ableitkammer auf 1 ml zu reduzieren. Der Zufluß von Flüssigkeit war Schwerkraft-abhängig und wurde durch magnetische Ventile kontrolliert. Der Ausfluß wurde durch das Anlegen eines negativen Drucks mittels einer Vakuumpumpe bewirkt. Die Zugabe von Substanzen erfolgte unter visueller Beobachtung direkt auf die zu untersuchenden Keratinozyten mittels eines ferngesteuerten, magnetgesteuerten Y-Rohrsystem (Durchmesser des Ausflußröhrchens: 100 µm).
Die elektrophysiologischen Ableitungen mittels perforierten "Patches" wurden an HaCaT-Zellen durchgeführt, die zu einem konfluenten Monolayer gewachsen waren.

[2] = system: HaCaT-Zellen; test: Anti-K10 immunostaining of HaCaT cells (differentiation); conditions: 1 mM 1-EBIO, 3 days, compared with control cells without 1-EBIO
Protocol: Dazu wurden proliferierende subkonfluente Zellen, Zellen, die gerade Konfluenz erreicht hatten, und ruhende Zellen (4 Tage nach Konfluenz) untersucht. Die Aktivität dieser Keratinozyten wurde anhand der differenzierungsspezifischen Keratin-10-Expression bestimmt. Dazu wurden die Zellen in eiskaltem PBS gewaschen und mit Aceton/Methanol (1:1) 20 min bei -20°C fixiert. Endogene Peroxidasen wurden mit 1 % H2O2 bei Raumtemperatur blockiert. Nachdem die unspezifischen Bindungsstellen mit 3% BSA in PBS abgesättigt worden waren, wurden die Zellen über Nacht in einer 1:500 Verdünnung des Maus-anti-K10 Antikörpers (DAKO) in 3% BSA in PBS bei 4°C inkubiert und anschließend drei Mal mit PBS und einmal mit 3% BSA in PBS gewaschen. Nach 2 h Inkubation mit einem Peroxidase-gekoppelten anti-Maus Antikörper bei Raumtemperatur wurden die Zellen dreimal mit PBS und einmal mit ddH2O gewaschen. Anschließend wurden die Zellen mit dem Peroxidase Substrat-Kit und 3-Amino-9-ethylcarbazol als chromogenes Substrat (Vector Laboratories) gefärbt. Während die proliferierenden Zellen und die Zellen, die gerade Konfluenz erreicht hatten, keine Färbung aufwiesen, zeigte es sich, daß ein Großteil der postkonfluenten Zellen gefärbt war (Figur 3). […]

[3] = system: HaCaT Zellen; test: Immunoblot of keratinocyte differentiation markers Involucrin, Keratin 1 and Keratin 10; conditions: 1, 100, 1000 µM; 4 days; control 1% DMSO
Excerpt: Dazu wurden in einer 6-"Well"- Platte 5x10^5 HaCaT Zellen pro "Well" in Medium angezogen. Am nächsten Tag wurde das Medium gewechselt auf Medium, das verschiedene Konzentrationen an 1-EBIO bzw. […] Als Lösungsmittelkontrolle wurde 1% DMSO (Spur "C") in Medium benutzt. Die Zellen wurden 4 Tage lang inkubiert, wobei das Medium täglich ersetzt wurde. Nach 4 Tagen wurden die Proteinkonzentration in den Zelllysaten bestimmt (BCA Assay, Pierce). Gleiche Proteinmengen aus den verschiedenen Lysaten wurden anschliessend mittels Immunoblot gegen die Keratinozytendifferenzierungsmarker Involucrin (1:500, Sigma) sowie Keratin 1 und 10 (1:250, Progen) verglichen (Figur 6).

[4] = system: HaCaT Zellen; test: BrDU incorporation cell proliferation ELISA (A[450 nm])
Excerpt: Dabei wurde zunächst der Einfluss verschiedener Konzentrationen von 1-EBIO auf die Wachstumsrate von HaCaT Zellen in An- und Abwesenheit von Serum gemessen. Zu diesem Zweck wurden 1x10^4 HaCaT Zellen pro "Well" in einer 96-"Well" Platte 5 Tage lang in Keratinozytenwachstumsmedium (KGM) kultiviert, um den Zellzyklus zu synchronisieren, gefolgt von einer zweitägigen Inkubation verschiedener Konzentrationen an 1-EBIO in KGM (siehe Figuren 7 und 8) in Abwesenheit (Figur 7) und in Anwesenheit (Figur 8) von Serum. […] Als Lösungmittelkontrolle diente 1% DMSO in KGM. Die Zellproliferation wurde mit Hilfe des Einbaus von […] (BrDU) während der Zellteilung gemäß den Angaben des Herstellers gemessen ("The Cell Proliferation ELISA, BrDU, Roche). Der Einbau von BrDU wurde dabei durch die Bestimmung der Absorption bei 450 nm quantifiziert. In Figur 7 und 8 ist jeweils die Absorption (A[450nm]) als Maß für die Proliferationsrate auf der Y-Achse aufgetragen. Eine höhere Absorption spiegelt eine stärkere Proliferation wieder.

[5] = system: HaCaT-Keratinozyten; test: Proliferation by daily count of cells per well; conditions: subconfluent cells, n=3
Protocol: Um den Effekt der Inhibitoren des hIK1 Kanals, Clotrimazol und Charybdotoxin, zu untersuchen, wurde zu subkonfluent gewachsenen Zellen entweder 10 µM Clotrimazol, 200 nM Charybdotoxin (ChTx) oder 1 mM 1-EBIO zugegeben und jeden Tag die Anzahl Zellen pro well bestimmt.
Wie aus Figur 5 (n=3) ersichtlich ist, inhibierte die Zugabe sowohl eines der beiden Inhibitoren als auch die Zugabe des Aktivators von hIK1 die Proliferation, während das Wachstum der Kontrollzellen, denen keine Modulatoren zugesetzt worden waren, unbeeinträchtigt blieb.

Compound: CCn1c(=O)[nH]c2ccccc21 [1-EBIO, 1-Ethyl-2-benzimidazolinon]
- transiente Depolarisierung nach ATP ([1]; ATP 10 µM in the presence of 1-EBIO 1 mM): viel stärker war als unter Kontrollbedingungen
- Anteil an K10-gefärbten Zellen (Differenzierung) [2]: signifikant reduzierten Anteil an gefärbten Zellen
- Differenzierung (Involucrin, K1, K10) [3]: dosisabhängig inhibieren
- Dosisabhängigkeit der Inhibition der seruminduzierten Proliferation ([4]; 1-EBIO, various concentrations, with serum): dosisabhängig ist und den stärksten Effekt bei einer Konzentration von 1 mM zeigt
- Zellproliferation ohne Serum ([4]; KGM without serum, 2 days, 1-EBIO various concentrations, Zoxazolamin 1 mM): alleine nicht in der Lage sind, die Zellproliferation zu stimulieren
- Apoptose / Morphologie der Zellen ([4]; cells treated with the activators): keine Anzeichen von Apoptose
- seruminduzierte Proliferation ([4]; with 10% FCS, 2 days, 1-EBIO various concentrations, Zoxazolamin 1 mM): in der Lage die seruminduzierte Proliferation zu inhibieren
- Proliferation (Anzahl Zellen pro well) ([5]; 1-EBIO 1 mM): inhibierten die Proliferation vollständig; also recorded: vollständigen Inhibition

Compound: Nc1ncnc2c1ncn2[C@@H]1O[C@H](COP(=O)(O)OP(=O)(O)OP(=O)(O)O)[C@@H](O)[C@H]1O [ATP]
- Reversibilität der Hyperpolarisierung ([1]; 1 µM ATP, n=9): durch Auswaschen der Lösung rasch reversiblen Prozeß
- Änderung des Membranpotentials ([1]; ATP 1-1000 µM perfusion, perforated patch, current clamp, confluent monolayer): biphasische Änderung des Membranpotentials, die aus einer kurzen, transienten Depolarisierung gefolgt von einer deutlichen und langanhaltenden Hyperpolarisierung bestand
- Dauer der Hyperpolarisierung nach ATP-Zugabe ([1]; ATP ≥ 10 µM, added for 5 min): ≥ 5 min

Compound: [Ba+2] [Ba^2+]
- Depolarisierung auf ein Plateau während der Behandlung mit ATP [1]: Keiner der anderen getesteten K^+-Kanalblocker (TEA, Ba^2+, und Verapamil) führten zu einer vergleichbaren Depolarisierung auf ein Plateau

Compound: Clc1ccccc1C(c1ccccc1)(c1ccccc1)n1ccnc1 [Clotrimazol]
- Einfluß auf die Repolarisierung unter ATP [1]: Derselbe Effekt
- Proliferation (Anzahl Zellen pro well) ([5]; Clotrimazol 10 µM): inhibierten die Proliferation vollständig; also recorded: vollständigen Inhibition

Compound: CCn1c(=O)[nH]c2cc(Cl)c(Cl)cc21 [DCEBIO, 5,6-dichloro-1-ethyl-1,3-dihydro-2H-benzimidazol-2-on]
- Stärke der Depolarisation relativ zu 1-EBIO ([1]; HaCaT Zellen, relative to 1-EBIO): 300-1000 fach

Compound: NCCc1c[nH]cn1 [Histamin]
- elektrophysiologische Antwort im Vergleich zu ATP ([1]; Histamin 100 µM, n=4): quantitativ und kinetisch praktisch identische Antwort

Compound: O=P(O)(O)O[C@@H]1[C@H](O)[C@H](O)[C@@H](OP(=O)(O)O)[C@H](OP(=O)(O)O)[C@H]1O [IP3]
- Spannungsänderung nach Freisetzung von IP3 ([1]; whole-cell, caged-IP3 10-100 µM, UV flash photolysis, n=7): schnellen, transienten Depolarisierung, gefolgt von einer Hyperpolarisierung

Compound: CCCCCCCCCCCCCC(=O)O[C@@H]1[C@@H](C)[C@@]2(O)[C@@H](C=C(CO)C[C@]3(O)C(=O)C(C)=C[C@@H]23)[C@@H]2C(C)(C)[C@]12OC(C)=O [PMA]
- Membranpotential (langsame Depolarisierung auf) [1]: -32 ± 2 mV
- Einfluß auf den Effekt von ATP ([1]; PMA 60 ng/µl, n=4): beeinflußte jedoch nicht den Effekt von ATP

Compound: CC[N+](CC)(CC)CC [TEA]
- Depolarisierung auf ein Plateau während der Behandlung mit ATP [1]: Keiner der anderen getesteten K^+-Kanalblocker (TEA, Ba^2+, und Verapamil) führten zu einer vergleichbaren Depolarisierung auf ein Plateau

Compound: Bradykinin (RPPGFSPFR; Bradykinin; UniProt P01042 381-389, looked up)
- elektrophysiologische Antwort im Vergleich zu ATP ([1]; Bradykinin 10 µM, n=3): quantitativ und kinetisch praktisch identische Antwort

Compound: Calphostin C
- Einfluß auf die ATP-vermittelte Spannungsänderung ([1]; Calphostin C 50 nM): beeinflußte jedoch ebenfalls nicht die ATP-vermittelte Spannungsänderung
- Membranpotential (schwache Hyperpolarisierung auf) ([1]; Calphostin C 50 nM): -58 ± 3 mV

Compound: Charybdotoxin
- Einfluß auf die bestehende ATP-vermittelte Hyperpolarisierung ([1]; ChTx 100 nM added after ATP, ATP still present, n=2): vollständige Umkehrung der Hyperpolarisierung
- Einfluß auf die Repolarisierung unter ATP ([1]; ChTx 100 nM before ATP, n=4): verhinderte ChTx die Repolarisierung vollständig
- Einfluß auf die ATP-vermittelte Hyperpolarisierung ([1]; ChTx 10-100 nM before ATP, n=15): verhinderte eine Hyperpolarisierung
- Inhibition der ATP-vermittelten Hyperpolarisierung ([1]; various concentrations, added before ATP): dosisabhängige Inhibition der ATP-vermittelten Hyperpolarisierung
- Proliferation (Anzahl Zellen pro well) ([5]; Charybdotoxin 200 nM): die Proliferation verlangsamte; also recorded: nur verlangsamtes Wachstum
